Data on two compounds can be found in PubChem BioAssay AID1259407 (Chemical Carcinogenesis Research Information System (CCRIS), 2018).

Calls of active or inactive are those of the source. How the calls were made is not given here.

The subject of the series is CCRIS mutagenicity, Ames/micronucleus/aberration tests. Put plainly: CCRIS mutagenicity studies. Particulars: Test System: AMES SALMONELLA TYPHIMURIUM
Where [1] appears, read: Strain/Indicator: TA100, Metabolic Activation: NONE, Method: PREINCUBATION

As to `Oc1c(I)cc(Cl)c2cccnc12`, the mutagenic call runs as follows: (Strain/Indicator: TA97, Metabolic Activation: HAMSTER, LIVER, S-9, AROCLOR 1254 (10%), Method: PREINCUBATION) “inactive; negative”; (Strain/Indicator: TA97, Metabolic Activation: HAMSTER, LIVER, S-9, AROCLOR 1254 (30%), Method: PREINCUBATION) “inactive; negative”; (Strain/Indicator: TA97, Metabolic Activation: NONE, Method: PREINCUBATION) “inactive; negative”; (Strain/Indicator: TA97, Metabolic Activation: RAT, LIVER, S-9, AROCLOR 1254 (10%), Method: PREINCUBATION) “inactive; negative”; (Strain/Indicator: TA97, Metabolic Activation: RAT, LIVER, S-9, AROCLOR 1254 (30%), Method: PREINCUBATION) “inactive; negative”; (Strain/Indicator: TA98, Metabolic Activation: HAMSTER, LIVER, S-9, AROCLOR 1254 (10%), Method: PREINCUBATION) “inactive; negative”. For the same compound, the mutagenic call was “inactive; negative” (Strain/Indicator: TA98, Metabolic Activation: HAMSTER, LIVER, S-9, AROCLOR 1254 (30%), Method: PREINCUBATION); “inactive; negative” (Strain/Indicator: TA98, Metabolic Activation: NONE, Method: PREINCUBATION); “inactive; negative” (Strain/Indicator: TA98, Metabolic Activation: RAT, LIVER, S-9, AROCLOR 1254 (10%), Method: PREINCUBATION); “inactive; negative” (Strain/Indicator: TA98, Metabolic Activation: RAT, LIVER, S-9, AROCLOR 1254 (30%), Method: PREINCUBATION); “inactive; negative” (Strain/Indicator: TA100, Metabolic Activation: HAMSTER, LIVER, S-9, AROCLOR 1254 (10%), Method: PREINCUBATION); “inactive; negative” (Strain/Indicator: TA100, Metabolic Activation: HAMSTER, LIVER, S-9, AROCLOR 1254 (30%), Method: PREINCUBATION). Moreover, the mutagenic call is “inactive; negative” under setting [1]; “inactive; negative” (Strain/Indicator: TA100, Metabolic Activation: RAT, LIVER, S-9, AROCLOR 1254 (10%), Method: PREINCUBATION); “inactive; negative” (Strain/Indicator: TA100, Metabolic Activation: RAT, LIVER, S-9, AROCLOR 1254 (30%), Method: PREINCUBATION); “inactive; negative” (Strain/Indicator: TA1535, Metabolic Activation: HAMSTER, LIVER, S-9, AROCLOR 1254 (10%), Method: PREINCUBATION); “inactive; negative” (Strain/Indicator: TA1535, Metabolic Activation: HAMSTER, LIVER, S-9, AROCLOR 1254 (30%), Method: PREINCUBATION); “inactive; negative” (Strain/Indicator: TA1535, Metabolic Activation: NONE, Method: PREINCUBATION). The mutagenic call was “inactive; negative” (Strain/Indicator: TA1535, Metabolic Activation: RAT, LIVER, S-9, AROCLOR 1254 (10%), Method: PREINCUBATION); “inactive; negative” (Strain/Indicator: TA1535, Metabolic Activation: RAT, LIVER, S-9, AROCLOR 1254 (30%), Method: PREINCUBATION); “inactive; negative” (Strain/Indicator: TA1537, Metabolic Activation: HAMSTER, LIVER, S-9, AROCLOR 1254 (30%), Method: PREINCUBATION); “inactive; negative” (Strain/Indicator: TA1537, Metabolic Activation: NONE, Method: PREINCUBATION); “inactive; negative” (Strain/Indicator: TA1537, Metabolic Activation: RAT, LIVER, S-9, AROCLOR 1254 (30%), Method: PREINCUBATION).
Consider `Cc1ccc(S(=O)(=O)OC[C@@H]2CO2)cc1`, for which the mutagenic call under setting [1] is “active; positive”; the mutagenic call (Strain/Indicator: TA100, Metabolic Activation: NONE, Method: STANDARD PLATE) is “active; positive”; the mutagenic call (Strain/Indicator: TA100, Metabolic Activation: RAT, LIVER, S-9, PCB, Method: PREINCUBATION) was “active; positive”.
